Three compounds from ChEMBL document CHEMBL5649166, “RIP3 induces apoptosis independent of pronecrotic kinase activity” (Mol Cell, 2014) can be followed below.

One test concerns NIH3T3. As to the kind of experiment: Inhibition of TNF-alpha induced necroptosis in mouse 3T3SA cells assessed as increase in cell viability at 0.04 to 1 uM incubated for 18 hrs in presence of zVAD by Cell Titer-Glo luminescent cell viability assay. In kind it is functional, cell-based. As to conditions: dose 0.04-1 µM. In general terms: In ATP-based viability assays light output follows the ATP content of the culture.

In test [1] the target is Death-associated protein kinase 1 (Homo sapiens) (UniProt P53355). Kind of test: Inhibition of human DAPK1 using KKLNRTLSFAEPG as substrate at 1 uM in presence of 32P-ATP by Hotspot assay relative to control; values are per cent of control.
Chain of Death-associated protein kinase 1 (Homo sapiens) (P53355 whole entry, looked up, canonical isoform): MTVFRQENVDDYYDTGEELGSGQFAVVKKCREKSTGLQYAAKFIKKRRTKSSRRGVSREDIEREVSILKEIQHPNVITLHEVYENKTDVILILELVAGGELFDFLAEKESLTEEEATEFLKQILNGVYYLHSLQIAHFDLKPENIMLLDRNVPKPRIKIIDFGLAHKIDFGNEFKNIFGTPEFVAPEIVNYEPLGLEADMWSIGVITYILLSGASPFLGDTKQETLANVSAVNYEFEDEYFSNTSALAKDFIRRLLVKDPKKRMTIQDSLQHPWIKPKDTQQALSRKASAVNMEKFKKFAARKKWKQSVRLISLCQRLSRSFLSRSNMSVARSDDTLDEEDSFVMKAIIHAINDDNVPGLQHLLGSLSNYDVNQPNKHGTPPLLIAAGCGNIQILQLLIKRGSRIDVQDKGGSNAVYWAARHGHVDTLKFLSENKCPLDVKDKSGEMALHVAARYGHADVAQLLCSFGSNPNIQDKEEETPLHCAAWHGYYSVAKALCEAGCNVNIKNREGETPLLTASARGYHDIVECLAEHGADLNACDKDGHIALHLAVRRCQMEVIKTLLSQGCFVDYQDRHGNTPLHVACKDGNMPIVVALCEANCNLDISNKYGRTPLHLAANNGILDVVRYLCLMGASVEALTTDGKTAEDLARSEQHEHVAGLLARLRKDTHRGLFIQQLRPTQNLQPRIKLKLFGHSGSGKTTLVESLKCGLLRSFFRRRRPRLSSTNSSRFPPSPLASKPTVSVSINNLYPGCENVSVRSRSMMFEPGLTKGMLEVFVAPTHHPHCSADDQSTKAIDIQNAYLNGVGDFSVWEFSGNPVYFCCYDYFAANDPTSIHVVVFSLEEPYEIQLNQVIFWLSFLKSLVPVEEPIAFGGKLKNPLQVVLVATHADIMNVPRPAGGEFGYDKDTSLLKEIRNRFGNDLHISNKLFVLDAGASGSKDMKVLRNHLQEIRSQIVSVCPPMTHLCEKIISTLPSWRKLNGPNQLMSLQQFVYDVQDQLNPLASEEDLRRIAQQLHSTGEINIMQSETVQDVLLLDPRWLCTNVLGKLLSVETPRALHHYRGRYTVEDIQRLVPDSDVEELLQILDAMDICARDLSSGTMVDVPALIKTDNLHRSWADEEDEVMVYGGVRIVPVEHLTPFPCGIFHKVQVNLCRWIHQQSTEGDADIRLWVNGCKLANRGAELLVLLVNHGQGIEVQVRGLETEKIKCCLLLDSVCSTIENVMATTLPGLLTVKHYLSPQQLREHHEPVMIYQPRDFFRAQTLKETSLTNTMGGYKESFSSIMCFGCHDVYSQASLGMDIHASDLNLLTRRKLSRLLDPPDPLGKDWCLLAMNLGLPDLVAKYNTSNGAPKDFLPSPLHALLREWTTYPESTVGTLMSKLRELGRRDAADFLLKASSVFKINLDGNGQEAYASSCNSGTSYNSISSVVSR
Test [2] has as its target Casein kinase I isoform gamma-3 (Homo sapiens) (UniProt Q9Y6M4). As to the kind of experiment: Inhibition of human CK1g3 using KRRRAL[pS]VASLPGL as substrate at 1 uM in presence of 32P-ATP by Hotspot assay relative to control; values are per cent of control.
The target in test [3] is T1, MAP kinase-activated protein kinase 5 (Homo sapiens) (UniProt Q8IW41).
T1 sequence (whole entry): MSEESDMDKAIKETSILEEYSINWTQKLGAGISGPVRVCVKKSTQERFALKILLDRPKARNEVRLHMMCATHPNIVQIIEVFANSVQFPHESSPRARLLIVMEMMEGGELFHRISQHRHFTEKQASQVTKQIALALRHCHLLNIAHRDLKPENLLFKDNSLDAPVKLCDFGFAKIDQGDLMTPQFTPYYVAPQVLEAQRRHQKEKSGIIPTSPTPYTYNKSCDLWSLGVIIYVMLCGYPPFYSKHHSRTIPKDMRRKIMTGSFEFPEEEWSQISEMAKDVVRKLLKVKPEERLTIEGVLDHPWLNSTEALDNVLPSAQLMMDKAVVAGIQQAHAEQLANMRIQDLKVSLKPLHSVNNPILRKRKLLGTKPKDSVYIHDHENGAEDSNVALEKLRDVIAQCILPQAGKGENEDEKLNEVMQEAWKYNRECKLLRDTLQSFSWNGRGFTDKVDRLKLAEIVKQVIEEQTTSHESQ
Kind of test: Inhibition of human MAPKAPK5/PRAK using KKLNRTLSVA as substrate at 1 uM in presence of 32P-ATP by Hotspot assay relative to control; values are per cent of control.

In test [4] the target is T2, Ephrin type-A receptor 8 (Homo sapiens) (UniProt P29322).
T2 sequence (whole entry): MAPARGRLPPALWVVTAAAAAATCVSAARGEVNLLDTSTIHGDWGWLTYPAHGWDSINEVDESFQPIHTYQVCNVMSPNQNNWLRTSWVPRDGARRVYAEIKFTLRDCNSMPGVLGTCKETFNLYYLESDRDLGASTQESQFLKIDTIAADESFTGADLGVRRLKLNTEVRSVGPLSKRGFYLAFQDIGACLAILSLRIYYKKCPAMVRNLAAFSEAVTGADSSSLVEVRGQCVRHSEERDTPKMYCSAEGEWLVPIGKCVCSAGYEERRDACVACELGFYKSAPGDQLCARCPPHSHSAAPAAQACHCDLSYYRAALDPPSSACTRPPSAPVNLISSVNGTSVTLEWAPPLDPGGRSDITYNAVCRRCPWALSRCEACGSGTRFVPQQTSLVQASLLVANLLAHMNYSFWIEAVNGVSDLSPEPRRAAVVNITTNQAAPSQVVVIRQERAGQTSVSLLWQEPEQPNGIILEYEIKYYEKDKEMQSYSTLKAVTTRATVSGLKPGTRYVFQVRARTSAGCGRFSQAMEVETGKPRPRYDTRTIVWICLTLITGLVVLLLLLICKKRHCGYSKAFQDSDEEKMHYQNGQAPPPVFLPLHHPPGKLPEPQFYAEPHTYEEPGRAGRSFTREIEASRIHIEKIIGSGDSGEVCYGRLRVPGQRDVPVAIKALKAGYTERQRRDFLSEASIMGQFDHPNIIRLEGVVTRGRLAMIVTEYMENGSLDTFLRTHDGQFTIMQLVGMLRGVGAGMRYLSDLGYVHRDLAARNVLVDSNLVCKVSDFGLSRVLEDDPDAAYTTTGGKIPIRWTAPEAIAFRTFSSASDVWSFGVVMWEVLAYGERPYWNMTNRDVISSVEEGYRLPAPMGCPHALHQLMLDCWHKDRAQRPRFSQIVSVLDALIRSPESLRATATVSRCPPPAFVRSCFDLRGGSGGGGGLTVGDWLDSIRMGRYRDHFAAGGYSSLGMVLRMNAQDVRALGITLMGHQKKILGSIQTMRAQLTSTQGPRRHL
As to the kind of experiment: Inhibition of human EPHA8 using poly[Glu:Tyr] (4:1) as substrate at 1 uM in presence of 32P-ATP by Hotspot assay relative to control; values are per cent of control.

Test [5] deals with T3, Mitogen-activated protein kinase kinase kinase 2 (Homo sapiens) (UniProt Q9Y2U5).
T3 sequence (whole entry): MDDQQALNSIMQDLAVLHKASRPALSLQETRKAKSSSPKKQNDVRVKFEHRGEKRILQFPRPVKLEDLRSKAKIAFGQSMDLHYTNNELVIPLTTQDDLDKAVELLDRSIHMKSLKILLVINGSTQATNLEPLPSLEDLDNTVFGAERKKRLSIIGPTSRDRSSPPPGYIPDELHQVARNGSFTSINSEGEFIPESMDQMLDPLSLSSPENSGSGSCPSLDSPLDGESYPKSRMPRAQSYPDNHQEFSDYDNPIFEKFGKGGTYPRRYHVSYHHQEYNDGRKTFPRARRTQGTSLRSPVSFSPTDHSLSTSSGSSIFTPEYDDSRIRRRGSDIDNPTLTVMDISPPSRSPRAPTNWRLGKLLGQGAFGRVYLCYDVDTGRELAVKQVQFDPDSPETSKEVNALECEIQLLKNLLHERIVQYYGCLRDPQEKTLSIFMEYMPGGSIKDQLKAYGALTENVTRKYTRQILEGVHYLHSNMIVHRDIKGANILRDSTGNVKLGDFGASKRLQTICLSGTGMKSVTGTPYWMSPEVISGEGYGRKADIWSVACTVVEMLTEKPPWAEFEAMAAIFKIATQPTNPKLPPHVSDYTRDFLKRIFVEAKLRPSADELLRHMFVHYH
Kind of test: Inhibition of human MEKK2 using myelin basic protein as substrate at 1 uM in presence of 32P-ATP by Hotspot assay relative to control; values are per cent of control.

Test [6] deals with Mitogen-activated protein kinase kinase kinase 20 (Homo sapiens) (UniProt Q9NYL2). As to the kind of experiment: Inhibition of human ZAK/MLTK using myelin basic protein as substrate at 1 uM in presence of 32P-ATP by Hotspot assay relative to control; values are per cent of control.
Chain of Mitogen-activated protein kinase kinase kinase 20 (Homo sapiens) (Q9NYL2 2-800 limits assumed): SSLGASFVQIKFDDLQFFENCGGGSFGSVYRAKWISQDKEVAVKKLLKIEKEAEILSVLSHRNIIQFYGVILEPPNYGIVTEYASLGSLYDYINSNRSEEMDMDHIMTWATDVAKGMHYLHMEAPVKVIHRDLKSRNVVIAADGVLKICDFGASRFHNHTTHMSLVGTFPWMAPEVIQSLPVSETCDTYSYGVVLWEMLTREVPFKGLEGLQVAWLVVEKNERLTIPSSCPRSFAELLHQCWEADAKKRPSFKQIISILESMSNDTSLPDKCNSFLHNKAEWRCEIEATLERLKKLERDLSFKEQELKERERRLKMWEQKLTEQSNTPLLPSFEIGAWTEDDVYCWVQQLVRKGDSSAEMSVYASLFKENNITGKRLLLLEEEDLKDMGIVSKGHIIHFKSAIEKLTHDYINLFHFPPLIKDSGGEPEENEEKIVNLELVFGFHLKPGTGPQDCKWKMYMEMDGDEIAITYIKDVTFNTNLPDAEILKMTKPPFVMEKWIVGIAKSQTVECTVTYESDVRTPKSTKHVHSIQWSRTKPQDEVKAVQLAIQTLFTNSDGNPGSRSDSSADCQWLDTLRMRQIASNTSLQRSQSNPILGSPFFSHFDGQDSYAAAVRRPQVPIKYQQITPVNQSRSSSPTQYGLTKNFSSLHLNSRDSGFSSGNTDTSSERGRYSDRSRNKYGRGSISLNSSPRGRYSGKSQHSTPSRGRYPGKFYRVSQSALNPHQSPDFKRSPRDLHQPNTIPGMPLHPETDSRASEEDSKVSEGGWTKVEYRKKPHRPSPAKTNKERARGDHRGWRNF
In test [7] the target is CDK9/cyclin T1 (Homo sapiens) (UniProt O60563+P50750). Kind of test: Inhibition of human CDK9/cyclin T1 using KTFCGTPEYLAPEVRREPRILSEEEQEMFRDFDYIADWC as substrate at 1 uM in presence of 32P-ATP by Hotspot assay relative to control; values are per cent of control.

Activity calls are given as the source filed them. No cut-off for these calls is given here.

Chain of Casein kinase I isoform gamma-3 (Homo sapiens) (Q9Y6M4 whole entry, looked up, canonical isoform): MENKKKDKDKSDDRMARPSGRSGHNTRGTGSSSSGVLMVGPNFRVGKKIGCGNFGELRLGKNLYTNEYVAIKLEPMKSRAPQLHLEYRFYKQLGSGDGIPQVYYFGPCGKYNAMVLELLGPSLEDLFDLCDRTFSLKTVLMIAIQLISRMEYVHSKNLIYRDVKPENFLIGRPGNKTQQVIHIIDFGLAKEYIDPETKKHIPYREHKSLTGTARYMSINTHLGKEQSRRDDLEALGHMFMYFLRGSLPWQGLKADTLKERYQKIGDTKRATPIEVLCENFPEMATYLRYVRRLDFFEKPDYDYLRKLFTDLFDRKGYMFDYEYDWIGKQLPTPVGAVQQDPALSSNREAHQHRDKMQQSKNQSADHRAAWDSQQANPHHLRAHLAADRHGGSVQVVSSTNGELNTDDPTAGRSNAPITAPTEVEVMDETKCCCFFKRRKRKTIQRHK

With `CC(C)S(=O)(=O)c1ccc2nccc(Nc3ccc4scnc4c3)c2c1`, in the test with NIH3T3, the inhibition entry is “Active”. Further, the residual activity in test [1] is 97%; in test [2], 103%; in test [3], 102%; in test [4], 42.8%; in test [5] it was 92.2%; in test [6] it was 94.5%. Besides, in test [7], the residual activity was found to be 96.6%.
As for `CNC(=O)c1ccc2c(c1)ncn2-c1ccc(CC(=O)OC(C)(C)C)cc1`, the inhibition result in the test with NIH3T3 is “inactive”. For the same compound, the residual activity turned out to be 91.6% in test [1]; 97.5% in test [2]; 103% in test [3]; 96.7% in test [4]; 100% in test [5]; 41.7% in test [6]. Besides, the residual activity in test [7] stood at 91.3%.
With `Cc1cc(-c2cnc(N)c3c(-c4ccc5scnc5c4)csc23)n(C)n1`, the inhibition entry in the test on NIH3T3 was “Active”. Besides, the residual activity in test [1] amounted to 95.3%; in test [2], 88.2%; in test [3], 90.5%; in test [4], 62.7%; in test [5], 106%; in test [6], 21.2%. Further, the residual activity in test [7] is 96.2%.
